Results as given in patent EP0672419A1, “BLOOD PRESSURE REGULATOR” (Asahi Kasei Kogyo Kabushiki Kaisha, priority 1991, dated 1995).

System: Adult mongrel dog
Experiment: Induced hypotension in halothane-anesthetized dog, mean arterial pressure kept at 50 mmHg for 60 min (Example 5)
Assay type: in vivo
Protocol: Adult mongrel dog, mean body weight 12.7 ± 3.1 kg, was anesthesized with pentobarbital 25 mg/kg, intratarcheally cannulated and maintained anesthetic condition by 0.87% halothane-oxygen (1 MAC, minimum anesthetic concentration). Respiration was controlled, by using respirator (Harvard Corp., Model 613E ) at Paco₂ 35±5 mmHg.
Catheters were introduced to right femoral vein and artery for monitering arterial blood pressure, arterial blood gas analysis and infusion, and left cardiac catheter was introduced to left femoral […] to monitor left ventricular pressure. The changes in left ventricular pressure were differentiated continuously using a pressure processor (Nihon Koden Co., EQ-601G) to measure a maximum left ventricular systolic ratio (LV dp/dt max). The active ingredient of the present invention was administered to left femoral vein. Pulmonary arterial catheter (7F, Swan-Ganz® catheter) was introduced through right external jugular vein to monitor pulmonary artery pressure (PAP), paulmonary arterial wedge pressure (pulmonary capillary wedge pressure, PCWP) and cardiac output (CO). Pressure was monitored by using disporsable pressure monitoring kit (Gould Corp.), and electrocardiogram, arteriala pressure, left ventricle pressure (LVP) and maximum left ventricular systolic ratio (LV dp/dt max) were monitored by polygraph (Nihon Koden Co.) . Cardiac output (CO) was measured by thermal dilution method using cardiac output monitor (Nihon Koden Co Model MTC6210). Blood gas analysis was made by using automatic blood gas analyser (Radiometer Corp. ABL3). Mean artery pressure (MAP), cardiac index(CI) stroke volume index (SI), systemic vascular resistance (SVR), pulmonary vascular resistance (PVR), left ventricle stroke work index (LVSWI) and coronary perfusion pressure (CPP) were calculated by standard calculation equations, respectively.
To maintain low blood pressure, the active ingredient was intraveneously administered for 60 minutes with maintaining maximum dose at 40 µg/kg and adjusting to maintain mean arteraial pressure at 50 mmHg. Physiological saline was used for maintenance infusion and administered in combination with the active ingredient at 7 ml/kg/hr. At blood sampling two fold volume of hydroxyethylstarch (6-HES) was supplementary administered. Body temperature was maintained at 37 ± 1°C by covering with blanket.
A value at time are than 60 minutes passed after completing the start of the experiment and stabilizing a depth of anesthesia and blood flow, is set as control (S₁). Monitorings were performed at 5 min., 30 min. and 60 min. under reduced blood pressure in induced hypotension, and at 10 min., 30 min. and 60 min. after terminating the reduced blood pressure in induced hypotension (after stopping administration), for totally seven points of time.

[1] = after administration 5min., i.v., MAP kept at 50 mmHg
[2] = after administration 30min., i.v., MAP kept at 50 mmHg
[3] = after administration 60min., i.v., MAP kept at 50 mmHg
[4] = after terminating administration 10min.
[5] = after terminating administration 30min.
[6] = after terminating administration 60min.

## desalanyl-deamino-c-CGRP
[1]
  CI: Cardiac index: 4.65 1/min/m²
  CO: Cardiac output: 3.67 min⁻¹
  CPP: Coronary perfusion pressure: 45 mmHg
  CVP: Central venous pressure: 4 mmHg
  DAP: Diastolic artery pressure: 50 mmHg
  DPAP: Diastolic pulmonary artery pressure: 7 mmHg
  EtCO₂: Expiration terminal CO₂ pressure: 37 mmHg
  HR: Heart rate: 143 beat/min
  LV dp/dt max: maximum left ventricular systolic ratio: 3000 mmHg/sec
  LVEP: Left ventricle end pressure: 0 mmHg
  LVP: Left ventricle pressure: 102 mmHg
  LVSWI: Left ventricle stroke work index: 26.5 g.m/beat/m²
  MAP: Mean artery pressure: 65 mmHg
  MPAP: Mean pulmonary artery pressure: 16 mmHg
  PCWP: Pulmonary capillary wedge pressure: 5 mmHg
  PVR: Pulmonary vascular resistance: 255 dynes · sec/cm⁵
  RPP: Rate pressure products: 13200 mmHg.beat/min
  RVSWI: Right ventricle stroke work index: 5.30 g.m/beat/m²
  SAP: Systolic artery pressure: 93 mmHg
  SI: Stroke index: 32.5 ml/HR/m²
  SPAP: Systolic pulmonary artery pressure: 29 mmHg
  SV: Stroke volumes: 24 mL/beat
  SVR: Systemic vascular resistance: 1410 dynes · sec/cm⁵
[2]
  CI: Cardiac index: 4.24 1/min/m²
  CO: Cardiac output: 3.40 min⁻¹
  CPP: Coronary perfusion pressure: 29 mmHg
  CVP: Central venous pressure: 4 mmHg
  DAP: Diastolic artery pressure: 34 mmHg
  DPAP: Diastolic pulmonary artery pressure: 5 mmHg
  EtCO₂: Expiration terminal CO₂ pressure: 35 mmHg
  HR: Heart rate: 132 beat/min
  LV dp/dt max: maximum left ventricular systolic ratio: 2600 mmHg/sec
  LVEP: Left ventricle end pressure: 0 mmHg
  LVP: Left ventricle pressure: 86 mmHg
  LVSWI: Left ventricle stroke work index: 19.7 g.m/beat/m²
  MAP: Mean artery pressure: 50 mmHg
  MPAP: Mean pulmonary artery pressure: 12 mmHg
  PCWP: Pulmonary capillary wedge pressure: 5 mmHg
  PVR: Pulmonary vascular resistance: 177 dynes · sec/cm⁵
  RPP: Rate pressure products: 7650 mmHg.beat/min
  RVSWI: Right ventricle stroke work index: 3.50 g.m/beat/m²
  SAP: Systolic artery pressure: 58 mmHg
  SI: Stroke index: 32.2 ml/HR/m²
  SPAP: Systolic pulmonary artery pressure: 24 mmHg
  SV: Stroke volumes: 23.8 mL/beat
  SVR: Systemic vascular resistance: 1160 dynes · sec/cm⁵
[3]
  CI: Cardiac index: 4.95 1/min/m²
  CO: Cardiac output: 3.75 min⁻¹
  CPP: Coronary perfusion pressure: 37 mmHg
  CVP: Central venous pressure: 4 mmHg
  DAP: Diastolic artery pressure: 43 mmHg
  DPAP: Diastolic pulmonary artery pressure: 7 mmHg
  EtCO₂: Expiration terminal CO₂ pressure: 34 mmHg
  HR: Heart rate: 138 beat/min
  LV dp/dt max: maximum left ventricular systolic ratio: 2600 mmHg/sec
  LVEP: Left ventricle end pressure: 0 mmHg
  LVP: Left ventricle pressure: 95 mmHg
  LVSWI: Left ventricle stroke work index: 23.4 g.m/beat/m²
  MAP: Mean artery pressure: 50 mmHg
  MPAP: Mean pulmonary artery pressure: 15 mmHg
  PCWP: Pulmonary capillary wedge pressure: 6 mmHg
  PVR: Pulmonary vascular resistance: 196 dynes · sec/cm⁵
  RPP: Rate pressure products: 8000 mmHg.beat/min
  RVSWI: Right ventricle stroke work index: 5.37 g.m/beat/m²
  SAP: Systolic artery pressure: 58 mmHg
  SI: Stroke index: 35.9 ml/HR/m²
  SPAP: Systolic pulmonary artery pressure: 27 mmHg
  SV: Stroke volumes: 26.5 mL/beat
  SVR: Systemic vascular resistance: 1090 dynes · sec/cm⁵
[4]
  CI: Cardiac index: 4.33 1/min/m²
  CO: Cardiac output: 3.33 min⁻¹
  CPP: Coronary perfusion pressure: 41 mmHg
  CVP: Central venous pressure: 4 mmHg
  DAP: Diastolic artery pressure: 49 mmHg
  DPAP: Diastolic pulmonary artery pressure: 7 mmHg
  EtCO₂: Expiration terminal CO₂ pressure: 32 mmHg
  HR: Heart rate: 136 beat/min
  LV dp/dt max: maximum left ventricular systolic ratio: 3000 mmHg/sec
  LVEP: Left ventricle end pressure: 0 mmHg
  LVP: Left ventricle pressure: 110 mmHg
  LVSWI: Left ventricle stroke work index: 21.7 g.m/beat/m²
  MAP: Mean artery pressure: 58 mmHg
  MPAP: Mean pulmonary artery pressure: 15 mmHg
  PCWP: Pulmonary capillary wedge pressure: 8 mmHg
  PVR: Pulmonary vascular resistance: 174 dynes · sec/cm⁵
  RPP: Rate pressure products: 9240 mmHg.beat/min
  RVSWI: Right ventricle stroke work index: 4.77 g.m/beat/m²
  SAP: Systolic artery pressure: 68 mmHg
  SI: Stroke index: 31.9 ml/HR/m²
  SPAP: Systolic pulmonary artery pressure: 26 mmHg
  SV: Stroke volumes: 23.6 mL/beat
  SVR: Systemic vascular resistance: 1340 dynes · sec/cm⁵
[5]
  CI: Cardiac index: 4.07 1/min/m²
  CO: Cardiac output: 3.14 min⁻¹
  CPP: Coronary perfusion pressure: 46 mmHg
  CVP: Central venous pressure: 4 mmHg
  DAP: Diastolic artery pressure: 53 mmHg
  DPAP: Diastolic pulmonary artery pressure: 8 mmHg
  EtCO₂: Expiration terminal CO₂ pressure: 30 mmHg
  HR: Heart rate: 138 beat/min
  LV dp/dt max: maximum left ventricular systolic ratio: 3000 mmHg/sec
  LVEP: Left ventricle end pressure: 0 mmHg
  LVP: Left ventricle pressure: 110 mmHg
  LVSWI: Left ventricle stroke work index: 23.7 g.m/beat/m²
  MAP: Mean artery pressure: 66 mmHg
  MPAP: Mean pulmonary artery pressure: 15 mmHg
  PCWP: Pulmonary capillary wedge pressure: 7 mmHg
  PVR: Pulmonary vascular resistance: 211 dynes · sec/cm⁵
  RPP: Rate pressure products: 10900 mmHg.beat/min
  RVSWI: Right ventricle stroke work index: 4.42 g.m/beat/m²
  SAP: Systolic artery pressure: 79 mmHg
  SI: Stroke index: 29.5 ml/HR/m²
  SPAP: Systolic pulmonary artery pressure: 25 mmHg
  SV: Stroke volumes: 21.8 mL/beat
  SVR: Systemic vascular resistance: 1640 dynes · sec/cm⁵
[6]
  CI: Cardiac index: 4.14 1/min/m²
  CO: Cardiac output: 3.07 min⁻¹
  CPP: Coronary perfusion pressure: 54 mmHg
  CVP: Central venous pressure: 6 mmHg
  DAP: Diastolic artery pressure: 61 mmHg
  DPAP: Diastolic pulmonary artery pressure: 8 mmHg
  EtCO₂: Expiration terminal CO₂ pressure: 30 mmHg
  HR: Heart rate: 134 beat/min
  LV dp/dt max: maximum left ventricular systolic ratio: 3000 mmHg/sec
  LVEP: Left ventricle end pressure: 0 mmHg
  LVP: Left ventricle pressure: 111 mmHg
  LVSWI: Left ventricle stroke work index: 31.1 g.m/beat/m²
  MAP: Mean artery pressure: 95 mmHg
  MPAP: Mean pulmonary artery pressure: 16 mmHg
  PCWP: Pulmonary capillary wedge pressure: 7 mmHg
  PVR: Pulmonary vascular resistance: 234 dynes · sec/cm⁵
  RPP: Rate pressure products: 13600 mmHg.beat/min
  RVSWI: Right ventricle stroke work index: 4.21 g.m/beat/m²
  SAP: Systolic artery pressure: 102 mmHg
  SI: Stroke index: 30.9 ml/HR/m²
  SPAP: Systolic pulmonary artery pressure: 26 mmHg
  SV: Stroke volumes: 22.9 mL/beat
  SVR: Systemic vascular resistance: 1950 dynes · sec/cm⁵
